Legend:
[1] = target: T1, M. smegmatis ICD (MsmICD) (Mycolicibacterium smegmatis, UniProt A0QSZ3); test: X-ray crystal structure, […] Å; type: binding; conditions: Mn2+ bound; crystals pre-incubated with glyoxylate, MnCl2, isocitrate and NADP+; pH 7.5
T1 construct: gene MSMEG_1654; full ORF, 743 AA; pET-28a(+), C-terminal TEV site and 6-His tag, tag removed by TEV; E. coli BL21(DE3); text says mycobacterial ICD2 forms dimers in solution

[2] = target: T1, M. smegmatis ICD (MsmICD); test: isothermal titration calorimetry; type: binding; conditions: pH 7.5, 25 °C, 10 mM Tris, 10 mM EDTA, 2.5 mM MgCl2; putative allosteric activator; 1:1 single-site fit
Source text: isothermal titration calorimetry on M. smegmatis ICD (MsmICD)

Compound | X-ray crystal structure, 2.8 Å [1] | K (M^-1) [2]
O=C(O)C[C@H](C(=O)O)[C@@H](O)C(=O)O (racemic) [isocitrate] | We determined the structure of MsmICD bound to isocitrate and manganese | –
O=CC(=O)O [glyoxylate] | – | 1.10e^6±4.21e^5

— PMC4999502, “A rheostat mechanism governs the bifurcation of carbon flux in mycobacteria” (Nature Communications, 2016)
